Reference: patent EP3178809A1, “HYBRID MOLECULE WITH STRUCTURAL AND ACTIVITY ELEMENTS OF RESVERATROL AND DIALLYL SULFIDE” (Albert-Ludwigs-Universität Freiburg, priority 2015, dated 2017)
“Also recorded” adds a separate entry of the source.

Columns and labels:
[1] = tested on: humane Magenkarzinomzellen MKN-45; assay: Apoptosis induction in tumour cells (morphological criteria, duplicate assays); type: cell-based, human; conditions: MKN-45, apoptosis
Description: Nach 3 Stunden bei 37 ° C, 5 % CO2 wurden die Prozentsätze apoptotischer Zellen bestimmt. […] Nach 3 Stunden bei 37 ° C, 5 % CO2 wurden die Prozentsätze apoptotischer Zellen bestimmt.
Die Daten basieren allesamt auf der quantitativen Bestimmung der Apoptose mittels der klassischen morphologischen Kriterien Kernkondensation, Kernfragmentation und Membrane Blebbing nach definierten Inkubationszeiten bei 37°C.
Die Ansätze erfolgten bei einer Zelldichte von 125 000 Zellen/ml in 96-Loch-Platten mit einem Reaktionsvolumen von 100 µl. Alle Ansätze wurden als Doppelansätze geführt und pro Messpunkt wurden mindestens 200 Zellen morphologisch bewertet. Eine detaillierte Aufstellung der verwendeten Medien, Inhibitoren, Zellen ist in den Arbeiten Scheit and Bauer, 2015; Bauer und Zarkovic, 2014; Bauer et al., 2014; Bauer, 2015 beschrieben.
Um zu klären, ob das Hybridmolekül aus Struktur- und Wirkungselementen von Resveratrol und Diallyldisulfid in der Lage ist, Apoptose in Tumorzellen zu induzieren, und dabei zu prüfen, ob sich durch die Kombination der Einzelfunktionen in einem Molekül der Synergieeffekt bündeln ließ, wurden steigende Konzentrationen des Hybridmoleküls zu Magenkarzinomzellen der Linie MKN-45 gegeben. Die als Parallelansätze geführten Ansätze wurden sowohl ohne als auch in Anwesenheit von 2 mM des Singulettsauerstofffängers Histidin inkubiert, um zu prüfen, ob der durch das Hybridmolekül ausgelöste Effekt durch Singulettsauerstoff vermittelt wird. Zum Vergleich wurde das gleiche Experiment mit steigenden Konzentrationen DADS durchgeführt, ebenfalls mit und ohne Histidinzugabe. Nach 3,5 Stunden Inkubation wurde der Prozentsatz apoptotischer Zellen bestimmt.

[2] = molecular target: T1, NOX1 von Magenkarzinomzellen (Homo sapiens, UniProt Q9Y5S8); assay: Stimulation of superoxide anion production (shift of Cu/ZnSOD inhibition curve of 3-AT-reactivated apoptosis signalling); type: cell-based; conditions: 0.9 µM, MKN-45, 100 mM 3-AT plus Cu/ZnSOD, 5,5 Stunden
T1 construct: endogenous in cells; host or cells: MKN-45
T1 sequence (Q9Y5S8 1-564): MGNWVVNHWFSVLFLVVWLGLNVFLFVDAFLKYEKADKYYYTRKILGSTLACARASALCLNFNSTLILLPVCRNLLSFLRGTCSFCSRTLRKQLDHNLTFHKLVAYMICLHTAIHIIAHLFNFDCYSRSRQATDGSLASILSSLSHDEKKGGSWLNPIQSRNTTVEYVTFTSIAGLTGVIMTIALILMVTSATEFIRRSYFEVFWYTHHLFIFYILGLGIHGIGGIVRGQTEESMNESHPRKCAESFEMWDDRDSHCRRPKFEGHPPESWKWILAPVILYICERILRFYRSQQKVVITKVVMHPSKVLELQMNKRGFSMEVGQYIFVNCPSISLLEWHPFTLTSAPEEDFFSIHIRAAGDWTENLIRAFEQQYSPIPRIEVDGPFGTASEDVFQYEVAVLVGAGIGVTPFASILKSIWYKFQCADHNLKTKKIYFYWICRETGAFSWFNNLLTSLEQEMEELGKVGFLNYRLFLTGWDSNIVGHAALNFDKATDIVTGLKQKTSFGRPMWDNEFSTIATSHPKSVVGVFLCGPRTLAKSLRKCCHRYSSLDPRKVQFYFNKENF
T1 sequence (P13498 1-195 partner): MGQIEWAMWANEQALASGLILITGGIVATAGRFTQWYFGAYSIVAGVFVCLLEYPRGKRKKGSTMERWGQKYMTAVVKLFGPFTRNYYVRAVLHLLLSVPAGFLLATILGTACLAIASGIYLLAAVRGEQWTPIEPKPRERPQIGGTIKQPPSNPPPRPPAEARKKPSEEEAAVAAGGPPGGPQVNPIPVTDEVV
Description: MKN-45-Zellen unter Standardbedingungen erhielten zunächst keinen Zusatz (Kontrolle) oder 0.9 µM Resveratrol oder der Resveratrolderivate HT 161, HT 163, HT 182, die durch unterschiedliche Blockierung der drei vorhandenen OH-Gruppen gekennzeichnet sind. Dabei waren beim Derivat HT 161 alle drei OH-Gruppen durch TBS (tert-Butyldimethylsilyl) blockiert, beim Derivat HT 163 die beiden OH-Gruppen in den Positionen 3'und 5'blockiert und beim Derivat HT 182 selektiv nur die OH-Gruppe in der Position 4'blockiert.
Danach erfolgte die Zugabe von 100 mM 3-AT (Katalasehemmstoff) und der angegebenen Konzentrationen von Cu/ZnSOD. Nach 5,5 Stunden erfolgte die Bestimmung der Prozentsätze apoptotischer Zellen in Doppelansätzen.
Da 3-AT Superoxidanionen-abhängiges interzelluläres Apoptose-auslösendes Signaling reaktiviert, wird der Prozess durch Cu/Zn-SOD blockiert, wobei sich eine typische Glockenkurve ausbildet. Der biochemische Grund dafür wird in Bauer et al., Carcinogenesis 35: 1582-1591, 2014 dargestellt.
Die Messung der extrazellulären Superoxidanionenkonzentration von Tumorzellen sowie die Bestrahlungstechnik mit Niedrigdosis-Gammastrahlung wird in der Arbeit Temme and Bauer, 2013 beschrieben. Die Hemmung der NOD wird bei Scheit and Bauer, 2015, beschrieben. Viele Versuchsergebnisse wurden in den Figuren dargestellt. […]

Oc1ccc(C=Cc2cc(O)cc(O)c2)cc1 [Resveratrol]
Synergieeffekt mit Taxol [1]: Synergieeffekt
Synergieeffekt mit DADS ([1]; 3,5 Stunden (Figur 10) or 5,5 Stunden (Figur 15)): konzentrationsabhängigen beachtlichen Synergieeffekt; also recorded: zur Ausprägung eines Synergieeffektes mit DADS befähigt
stimulierende Wirkung auf die Superoxidanionensynthese [2]: Rechtsverschiebung der Kurve
